According to PMC6814738, “Bacterial MgrB peptide activates chemoreceptor Fpr3 in mouse accessory olfactory system and drives avoidance behaviour” (Nature Communications, 2019):

Molecular target: T1, mouse Fpr3 (Fpr-rs1) (Mus musculus, UniProt O08790)
T1 construct: expressed in transfected cells; host or cells: HEK293T (DSMZ # ACC-635), transient transfection with jetPEI
T1 sequence (O08790 1-351): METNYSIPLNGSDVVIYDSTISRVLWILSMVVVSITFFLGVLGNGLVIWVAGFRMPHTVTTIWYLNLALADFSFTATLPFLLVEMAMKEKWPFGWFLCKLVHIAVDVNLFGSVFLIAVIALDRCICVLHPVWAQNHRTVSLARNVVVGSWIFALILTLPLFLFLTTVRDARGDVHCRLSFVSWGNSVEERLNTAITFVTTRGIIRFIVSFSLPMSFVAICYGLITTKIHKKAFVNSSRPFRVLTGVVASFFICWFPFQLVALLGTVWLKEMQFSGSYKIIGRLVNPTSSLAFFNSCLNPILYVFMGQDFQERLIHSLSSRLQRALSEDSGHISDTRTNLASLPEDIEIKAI
Assay: Heterologous expression / high-throughput Ca2+ imaging agonist screen and sequence selectivity of Fpr3 (Fig. 1a, 2c-e, 2g, 2i)
Format: cell-based
Settings: mean of n = 3 experiments in triplicate (n = 5 for f-MKKFRW), Fpr3 + Gα16 HEK293T, Fluo-4/AM, FLIPR, buffer C1 pH 7.2, mock 0.059-0.060
Description: An Fpr3 gene subcloned from genomic DNA of C57BL/6J mice into pcDNA3.1 (Invitrogen) was used in heterologous experiments[21],[80]. HEK293T (DSMZ # ACC-635) cells were seeded at 20–30% confluence on poly-D-lysine-coated (10 µg/ml in PBS) black 96-well µCLEAR-Plates (Greiner Bio-One). Cells were transfected 24 h later using jetPEI™ (Polyplus-transfection SA) according to the manufacturer’s protocol for 96-well transfections. For Ca^2+ imaging experiments, 0.125 µg of DNA plasmid encoding Fpr3 were cotransfected with equal amounts of a plasmid encoding Gα16, a promiscuous G protein α-subunit. Ca^2+ signals to agonist stimulation were recorded 48 h post transfection using the Ca^2+ indicator dye Fluo-4/AM (Molecular Probes) and a fluorescence imaging plate reader (FLIPR) system (Molecular Devices). Cotransfection of a plasmid encoding Gα16 with an empty vector used to subclone Fpr3 gave no agonist-evoked Ca^2+ responses.
We used custom-made peptides with a length of 6–21 amino acids to screen for agonists. Sequences of fMet peptides were designed according to motifs present at the N-termini of 15,125 specific bacterial proteins as annotated in UniProt. Peptides were chemically synthesised, purified, and verified by mass spectroscopy (MALDI-TOF) by commercial suppliers. Purity of all peptides was >95%. Source, sequence and purity of each peptide are listed in Supplementary Data 1. Lyophilised peptides were routinely dissolved in the Ca^2+ imaging assay buffer C1 (130 mM NaCl, 10 mM HEPES, 5 mM KCl, 2 mM CaCl2, 5 mM glucose, pH 7.2) as 0.2–1 mM stock solutions and kept in small aliquots at −20 °C until use. […] The sequences of these peptides exist in proteins from the following bacterial strains[21]: Psychromonas ingrahamii that belongs to a marine ice water microbial community, Desulfotomaculum reducens that is found in deep freshwater lakes, and Pseudomonas grimontii, a plant pathogen. As mice are unlikely to encounter these strains in their natural habitat, these findings are probably not of biological relevance.

Substance	Ca2+ response, mean (3 µM)	Ca2+ response, mean (30 µM)
f-MAMKKL [synthesized fMet peptide]	0.058 ∆F/F	0.059 ∆F/F
f-MAQDIISTI [synthesized fMet peptide]	0.079 ∆F/F	0.075 ∆F/F
f-MAYPFQ [synthesized fMet peptide]	0.059 ∆F/F	0.061 ∆F/F
f-MEFVAK [synthesized fMet peptide]	0.051 ∆F/F	0.076 ∆F/F
f-MEFVAKLFK [synthesized fMet peptide]	0.071 ∆F/F	0.062 ∆F/F
f-MFIYYCK [synthesized fMet peptide]	0.053 ∆F/F	0.042 ∆F/F
f-MINKKI [synthesized fMet peptide]	0.058 ∆F/F	0.045 ∆F/F
f-MKFCTA [synthesized fMet peptide]	0.034 ∆F/F	0.080 ∆F/F
f-MKKFLL [synthesized fMet peptide]	0.052 ∆F/F	0.050 ∆F/F
f-MKKFNI [synthesized fMet peptide]	0.053 ∆F/F	0.044 ∆F/F
f-MKKFYS [synthesized fMet peptide]	0.058 ∆F/F	0.056 ∆F/F
f-MKKHRW [synthesized fMet peptide]	0.061 ∆F/F	0.054 ∆F/F
f-MKKIML [synthesized fMet peptide]	0.050 ∆F/F	0.055 ∆F/F
f-MKKISKFLP [synthesized fMet peptide]	0.055 ∆F/F	0.072 ∆F/F
f-MKKLLNKIV [synthesized fMet peptide]	0.056 ∆F/F	0.054 ∆F/F
f-MKKNLV [synthesized fMet peptide]	0.052 ∆F/F	0.053 ∆F/F
f-MKKTLSLKN [synthesized fMet peptide]	0.068 ∆F/F	0.058 ∆F/F
f-MKKWRW [synthesized fMet peptide]	0.056 ∆F/F	0.063 ∆F/F
f-MKKYKRLLL [synthesized fMet peptide]	0.074 ∆F/F	0.065 ∆F/F

Substance	Ca2+ response, mean (3 µM)	Ca2+ response, mean (30 µM)
f-MKNFKG [synthesized fMet peptide, bacterial signal peptide fragment]	0.065 ∆F/F	0.052 ∆F/F
f-MKTSIR [synthesized fMet peptide]	0.055 ∆F/F	0.049 ∆F/F
f-MLFKYL [synthesized fMet peptide]	0.053 ∆F/F	0.056 ∆F/F
f-MLFKYS [synthesized fMet peptide]	0.054 ∆F/F	0.048 ∆F/F
f-MLKIIL [synthesized fMet peptide]	0.057 ∆F/F	0.057 ∆F/F
f-MLNKKKRGN [synthesized fMet peptide]	0.056 ∆F/F	0.058 ∆F/F
f-MMKMEG [synthesized fMet peptide]	0.048 ∆F/F	0.040 ∆F/F
f-MNIFTT [synthesized fMet peptide]	0.059 ∆F/F	0.065 ∆F/F
f-MNKKLL [f-MNKLL, synthesized fMet peptide]	0.038 ∆F/F	0.039 ∆F/F
f-MNPITL [synthesized fMet peptide]	0.053 ∆F/F	0.062 ∆F/F
f-MPKLNR [synthesized fMet peptide]	0.048 ∆F/F	0.033 ∆F/F
f-MPQLDT [synthesized fMet peptide]	0.060 ∆F/F	0.058 ∆F/F
f-MPSTFF [synthesized fMet peptide]	0.063 ∆F/F	0.065 ∆F/F
f-MTHQTH [synthesized fMet peptide]	0.064 ∆F/F	0.077 ∆F/F
f-MTNKIS [synthesized fMet peptide]	0.052 ∆F/F	0.049 ∆F/F
f-MTNMRK [synthesized fMet peptide]	0.089 ∆F/F	0.060 ∆F/F
f-MVKIIF [synthesized fMet peptide]	0.045 ∆F/F	0.054 ∆F/F
f-MVMKFK [synthesized fMet peptide]	0.053 ∆F/F	0.050 ∆F/F
f-MVPISI [synthesized fMet peptide]	0.048 ∆F/F	0.044 ∆F/F
